# Test results as given in patent publication US20240383915A1, “OXAZEPINE COMPOUNDS AND USES THEREOF IN THE TREATMENT OF CANCER” (Genentech, Inc., priority 2021, published 2024).
# pIC50: −log10 of the molar value. Read-outs that look alike come from different tables or passages of the source.
# Tests used:
# [1] = molecular target: KRas(G12V) (Homo sapiens (Human), UniProt P01116, G12V); assay: KRas(G12V) GDP HTRF (BODIPY-GDP exchange TR-FRET); assay type: biochemical
# [2] = test system: SW480 cells; assay: SW480 proliferation assay; assay type: cell-based; details: read-out: SW480 Prolif IC50 (G12V)
# [3] = test system: PC-9 cells; assay: PC9 proliferation assay; assay type: cell-based, human; details: read-out: PC9 Prolif IC50 (G12V)
# [4] = molecular target: KRas (Homo sapiens (Human), UniProt P01116); assay: KRas GDP HTRF (BODIPY-GDP exchange TR-FRET); assay type: biochemical
# How it was run: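 Inhibition of SOS1-mediated exchange of BODIPY-GDP on KRAS G12D, started with 3 nM recombinant human SOS1 and 300 nM BODIPY-GDP and read after 60 min. TR-FRET excitation 337 nm, ratio 520/490 nm ×10,000. IC50 from 4-parameter Hill fit of normalized data.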
# KRas(G12V), sequence (P01116-2 other isoform, or with tags, fused parts or gaps G12V): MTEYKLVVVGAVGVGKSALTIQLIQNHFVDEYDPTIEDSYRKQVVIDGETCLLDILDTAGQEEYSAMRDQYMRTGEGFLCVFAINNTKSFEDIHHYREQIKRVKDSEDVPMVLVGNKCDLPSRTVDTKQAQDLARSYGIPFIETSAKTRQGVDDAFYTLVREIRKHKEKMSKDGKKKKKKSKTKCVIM
# KRas, sequence (P01116-2 other isoform, or with tags, fused parts or gaps): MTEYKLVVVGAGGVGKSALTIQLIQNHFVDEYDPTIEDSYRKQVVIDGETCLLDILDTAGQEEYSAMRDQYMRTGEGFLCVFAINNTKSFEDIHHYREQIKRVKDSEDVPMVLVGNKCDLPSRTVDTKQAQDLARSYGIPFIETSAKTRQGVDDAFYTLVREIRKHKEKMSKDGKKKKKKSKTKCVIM
Compound,pIC50 [1],"pIC50 ([2]; Homo sapiens, SW480, SW480)","pIC50 ([3]; Homo sapiens, PC-9, PC9)",pIC50 [4],pIC50 ([2]; SW480),pIC50 ([3]; PC9)
"CC(=O)N1CCN2[C@H](COc3nc4c5c(c(Cl)c(-c6nc(N)cc(C)c6C(F)(F)F)c(F)c5n3)OCCN4[C@H](C)c3cccnc3N)CC[C@H]2C1 (atropisomer, axis not shown; (aS)) [Example 123a, 1-((6S,8aS)-6-((((R)-9-(6-amino-4-methyl-3-(trifluoromethyl)pyridin-2-yl)-4-((R)-1-(2-aminopyridin-3-yl)ethyl)-8-chloro-10-fluoro-5,6-dihydro-4H-[1,4]oxazepino[5,6,7-de]quinazolin-2-yl)oxy)methyl)hexahydropyrrolo[1,2-a]pyrazin-2(1H)-yl)ethan-1-one]",9.89,7.52,5.19,9.82,,
"Cc1cc(N)nc(-c2c(Cl)c3c4c(nc(OC[C@@H]5CC[C@H]6CN(S(C)(=O)=O)CCN56)nc4c2F)N([C@H](C)c2cccnc2N)CCO3)c1C(F)(F)F (atropisomer, axis not shown; (aS)) [Example 125a, 6-((R)-4-((R)-1-(2-aminopyridin-3-yl)ethyl)-8-chloro-10-fluoro-2-(((6S,8aS)-2-(methylsulfonyl)octahydropyrrolo[1,2-a]pyrazin-6-yl)methoxy)-5,6-dihydro-4H-[1,4]oxazepino[5,6,7-de]quinazolin-9-yl)-4-methyl-5-(trifluoromethyl)pyridin-2-amine]",9.92,7.64,5.43,9.66,,
"Cc1cc(N)nc(-c2c(Cl)c3c4c(nc(OC[C@@]56CCCN5C[C@H](F)C6)nc4c2F)N(C)CCO3)c1C(F)(F)F (single isomer, unassigned) [Example 41a]",8.74,6.00,5.42,7.96,,
"Cc1cc(N)nc(-c2c(Cl)c3c4c(nc(OC[C@@]56CCCN5C[C@H](F)C6)nc4c2F)N(Cc2cccnc2N)CCO3)c1C(F)(F)F (single isomer, unassigned) [Example 42a]",9.52,,,9.60,7.07,5.89
"Cc1cc(N)nc(-c2c(Cl)c3c4c(nc(OC[C@@]56CCCN5C[C@H](F)C6)nc4c2F)N(Cc2cccnc2N)CCO3)c1C(F)(F)F (single isomer, unassigned) [Example 42b]",7.26,,,7.09,5.47,5.15
"Cc1cc(N)c(F)c(-c2c(Cl)c3c4c(nc(OC[C@@]56CCCN5C[C@H](F)C6)nc4c2F)N([C@H](C)c2cccnc2N)CCO3)c1C(F)(F)F (single isomer, unassigned) [Example 73a]",9.96,8.59,5.64,9.57,,
"Cc1cc(N)c(F)c(-c2c(Cl)c3c4c(nc(OC[C@@]56CCCN5C[C@H](F)C6)nc4c2F)N([C@H](C)c2cccnc2N)CCO3)c1I (single isomer, unassigned) [Example 74a]",10.05,8.22,5.54,9.68,,
"C[C@H](c1cccnc1N)N1CCOc2c(Cl)c(-c3c(F)ccc4cnn(C)c34)c(F)c3nc(OC[C@@]45CCCN4C[C@H](F)C5)nc1c23 (single isomer, unassigned) [Example 105a]",10.10,7.80,5.15,9.64,,
"Cc1cc(N)nc(-c2cc3nc(OC[C@@]45CCCN4C[C@H](F)C5)nc4c3c(c2Cl)OCCN4Cc2ccn[nH]2)c1C(F)(F)F [Example 1, 6-(4-((1H-pyrazol-5-yl)methyl)-8-chloro-2-(((2R,7aS)-2-fluorotetrahydro-1H-pyrrolizin-7a(5H)-yl)methoxy)-5,6-dihydro-4H-[1,4]oxazepino[5,6,7-de]quinazolin-9-yl)-4-methyl-5-(trifluoromethyl)pyridin-2-amine]",8.05,4.92,4.74,7.34,,
"Cc1cc(N)nc(-c2cc3nc(OC[C@@]45CCCN4C[C@H](F)C5)nc4c3c(c2Cl)OCCN4Cc2cn[nH]c2)c1C(F)(F)F [Example 2, 6-(4-((1H-pyrazol-4-yl)methyl)-8-chloro-2-(((2R,7aS)-2-fluorotetrahydro-1H-pyrrolizin-7a(5H)-yl)methoxy)-5,6-dihydro-4H-[1,4]oxazepino[5,6,7-de]quinazolin-9-yl)-4-methyl-5-(trifluoromethyl)pyridin-2-amine]",7.96,4.96,5.11,7.60,,
"Cc1cc(N)nc(-c2cc3ncnc4c3c(c2Cl)OCCN4[C@H](C)c2cccnc2N)c1C(F)(F)F [Example 5, (R)-6-(4-(1-(2-aminopyridin-3-yl)ethyl)-8-chloro-5,6-dihydro-4H-[1,4]oxazepino[5,6,7-de]quinazolin-9-yl)-4-methyl-5-(trifluoromethyl)pyridin-2-amine]",8.82,5.82,5.05,8.04,,
"Cc1cc(N)nc(-c2cc3ncnc4c3c(c2Cl)OCCN4[C@H](C)c2cncc(N)c2)c1C(F)(F)F [Example 17, (R)-6-(4-(1-(5-aminopyridin-3-yl)ethyl)-8-chloro-5,6-dihydro-4H-[1,4]oxazepino[5,6,7-de]quinazolin-9-yl)-4-methyl-5-(trifluoromethyl)pyridin-2-amine]",8.21,5.06,4.77,7.28,,
"Cc1cc(N)nc(-c2cc3ncnc4c3c(c2Cl)OCCN4[C@@H](C)c2cccnc2N)c1C(F)(F)F [Example 18, (S)-6-(4-(1-(2-aminopyridin-3-yl)ethyl)-8-chloro-5,6-dihydro-4H-[1,4]oxazepino[5,6,7-de]quinazolin-9-yl)-4-methyl-5-(trifluoromethyl)pyridin-2-amine]",7.46,4.70,4.70,6.70,,
"Cc1cc(N)nc(-c2cc3ncnc4c3c(c2Cl)OC[C@H](CC#N)N4Cc2cccnc2N)c1C(F)(F)F [Example 19, (S)-2-(9-(6-amino-4-methyl-3-(trifluoromethyl)pyridin-2-yl)-4-((2-aminopyridin-3-yl)methyl)-8-chloro-5,6-dihydro-4H-[1,4]oxazepino[5,6,7-de]quinazolin-5-yl)acetonitrile]",4.82,5.24,5.35,3.70,,
"Cc1cc(N)nc(-c2cc3ncnc4c3c(c2Cl)OCCN4C(c2cccnc2N)C(F)(F)F)c1C(F)(F)F (stereo not shown) [Example 20, 6-(4-(1-(2-aminopyridin-3-yl)-2,2,2-trifluoroethyl)-8-chloro-5,6-dihydro-4H-[1,4]oxazepino[5,6,7-de]quinazolin-9-yl)-4-methyl-5-(trifluoromethyl)pyridin-2-amine]",7.16,5.14,5.06,6.29,,
"CN1CCOc2c(Cl)c(-c3cccc4sc(N)nc34)cc3nc(OC[C@@]45CCCN4C[C@H](F)C5)nc1c23 [Example 23, 4-(8-chloro-2-(((2R,7aS)-2-fluorotetrahydro-1H-pyrrolizin-7a(5H)-yl)methoxy)-4-methyl-5,6-dihydro-4H-[1,4]oxazepino[5,6,7-de]quinazolin-9-yl)benzo[d]thiazol-2-amine]",8.29,5.29,5.00,7.54,,
